Patent publication US10167262B2, “Herbicidal substituted 3-arylpyrazoles” (FMC CORPORATION, priority 2014, dated 2019)

Columns and labels:
Type in all cases: in vivo
[1] = test system: morningglory (Ipomoea spp.); assay: Test A pre-/postemergence greenhouse herbicide test, visual injury rating 0-100; settings: Preemergence
Outline: (§1)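 Directed soil spray (pre) and foliar spray (post, 1–2 leaf) of solvent/surfactant-formulated compound; greenhouse ~10 d; visual injury 0–100 vs untreated controls.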

[2] = test system: pigweed (Amaranthus retroflexus); assay: as above
Outline: as §1

[3] = test system: giant foxtail (Setaria faberii); assay: as above
Outline: as §1

[4] = test system: velvetleaf (Abutilon theophrasti); assay: as above
Outline: as §1

[5] = test system: wheat (Triticum aestivum); assay: as above
Outline: as §1

[6] = test system: barnyardgrass (Echinochloa crus-galli); assay: as above
Outline: as §1

[7] = test system: large (Lg) crabgrass (Digitaria sanguinalis); assay: as above
Outline: as §1

[8] = test system: corn (Zea mays); assay: as above
Outline: as §1

[9] = test system: ragweed (common ragweed, Ambrosia elatior); assay: Test C pre-/postemergence greenhouse test, plant response rating 0-100; settings: Postemergence
Outline: (§2)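 Plants were scored visually against controls 13–15 days after treatment on a 0–100 scale, 100 meaning complete control. Test chemicals, formulated in surfactant-containing non-phytotoxic solvent, went preemergence onto seeds in loam–sand blend or postemergence onto 1- to 4-leaf plants (2–18 cm) grown in peat-based mix.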

[10] = test system: yellow nutsedge (Cyperus esculentus); assay: as above; settings: Postemergence
Outline: as §2

[11] = test system: galium (catchweed bedstraw, Galium aparine); assay: as above; settings: Postemergence
Outline: as §2

[12] = test system: large (Lg) crabgrass (Digitaria sanguinalis); assay: as above; settings: Postemergence
Outline: as §2

[13] = test system: Italian ryegrass (Lolium multiflorum); assay: as above; settings: Postemergence
Outline: as §2

CC(C)n1cc(C(=O)c2ccccc2)c(-c2cc(Cl)cc(Cl)c2)n1 [Compound 44]
90: Plant response rating (0 to 100 scale), Velvetleaf ([4]; Postemergence, 125 g ai/ha) | Plant response rating (0 to 100 scale), Velvetleaf ([4]; Postemergence, 500 g ai/ha)
40: Plant response rating (0 to 100 scale), Velvetleaf ([4]; Preemergence, 500 g ai/ha)
20: Velvetleaf plant response rating (0 = no effect, 100 = complete control) ([4]; Preemergence, 125 g ai/ha)
5: Plant response rating (0 to 100), Ragweed ([9]; 62 g ai/ha) | Plant response rating (0 to 100), Ragweed ([9]; 125 g ai/ha) | Plant response rating (0 to 100), Crabgrass, Large ([12]; 62 g ai/ha) | Plant response rating (0 to 100), Crabgrass, Large ([12]; 125 g ai/ha)
10: Plant response rating, Ragweed ([9]; 250 g ai/ha, scale 0 to 100) | Plant response rating, Crabgrass, Large ([12]; 250 g ai/ha, scale 0 to 100)
80: Plant response rating (0 to 100 scale), Pigweed ([2]; Postemergence, 125 g ai/ha)
100: Plant response rating (0 to 100 scale), Pigweed ([2]; Postemergence, 500 g ai/ha)
70: Plant response rating (0 to 100 scale), Pigweed ([2]; Preemergence, 500 g ai/ha)
0: Morningglory plant response rating (0 = no effect, 100 = complete control) ([1]; 125 g ai/ha) | Plant response rating (0 to 100 scale), Morningglory ([1]; 500 g ai/ha) | Pigweed plant response rating (0 = no effect, 100 = complete control) ([2]; Preemergence, 125 g ai/ha) | Plant response rating (0 to 100 scale), Foxtail, Giant ([3]; Postemergence, 125 g ai/ha) | Plant response rating (0 to 100 scale), Foxtail, Giant ([3]; Postemergence, 500 g ai/ha) | Foxtail, Giant plant response rating (0 = no effect, 100 = complete control) ([3]; Preemergence, 125 g ai/ha) | Plant response rating (0 to 100 scale), Foxtail, Giant ([3]; Preemergence, 500 g ai/ha) | Plant response rating (0 to 100 scale), Wheat ([5]; Postemergence, 125 g ai/ha) | Plant response rating (0 to 100 scale), Wheat ([5]; Postemergence, 500 g ai/ha) | Wheat plant response rating (0 = no effect, 100 = complete control) ([5]; Preemergence, 125 g ai/ha) | Plant response rating (0 to 100 scale), Wheat ([5]; Preemergence, 500 g ai/ha) | Plant response rating (0 to 100 scale), Barnyardgrass ([6]; Postemergence, 125 g ai/ha) | Plant response rating (0 to 100 scale), Barnyardgrass ([6]; Postemergence, 500 g ai/ha) | Barnyardgrass plant response rating (0 = no effect, 100 = complete control) ([6]; Preemergence, 125 g ai/ha) | Plant response rating (0 to 100 scale), Barnyardgrass ([6]; Preemergence, 500 g ai/ha) | Plant response rating (0 to 100 scale), Crabgrass, Large ([7]; Postemergence, 125 g ai/ha) | Plant response rating (0 to 100 scale), Crabgrass, Large ([7]; Postemergence, 500 g ai/ha) | Crabgrass, Large plant response rating (0 = no effect, 100 = complete control) ([7]; Preemergence, 125 g ai/ha) | Plant response rating (0 to 100 scale), Crabgrass, Large ([7]; Preemergence, 500 g ai/ha) | Plant response rating (0 to 100 scale), Corn ([8]; Postemergence, 125 g ai/ha) | Plant response rating (0 to 100 scale), Corn ([8]; Postemergence, 500 g ai/ha) | Corn plant response rating (0 = no effect, 100 = complete control) ([8]; Preemergence, 125 g ai/ha) | Plant response rating (0 to 100 scale), Corn ([8]; Preemergence, 500 g ai/ha) | Plant response rating (0 to 100), Nutsedge, Yellow ([10]; 62 g ai/ha) | Plant response rating (0 to 100), Nutsedge, Yellow ([10]; 125 g ai/ha) | Plant response rating, Nutsedge, Yellow ([10]; 250 g ai/ha, scale 0 to 100) | Plant response rating (0 to 100), Galium ([11]; 31 g ai/ha) | Plant response rating (0 to 100), Galium ([11]; 62 g ai/ha) | Plant response rating (0 to 100), Galium ([11]; 125 g ai/ha) | Plant response rating, Galium ([11]; 250 g ai/ha, scale 0 to 100) | Plant response rating (0 to 100), Crabgrass, Large ([12]; 31 g ai/ha) | Plant response rating (0 to 100), Ryegrass, Italian ([13]; 62 g ai/ha) | Plant response rating (0 to 100), Ryegrass, Italian ([13]; 125 g ai/ha) | Plant response rating, Ryegrass, Italian ([13]; 250 g ai/ha, scale 0 to 100)
